# From patent US20120053119A1, “THERAPEUTIC METHOD FOR INCREASING PANCREATIC BETA CELL MASS” (priority 2009, published 2012)
# Ends that are not written are not given here.
# Key:
# mice = assay: Infusion of GLP-1(28-36) amide nonapeptide into mice, islet size; assay type: in vivo; settings: infusions into mice, preliminary
# Description: (§1) The inventors have done preliminary studies using GLP-1(28-36), a nine amino acid peptide (the “nonapeptide”) cleaved from the C-terminus of GLP-1 (SEQ ID NO:4). In the studies, the inventors used the peptide having an arginine amide at the C-terminus (FIAWLVKGR-amide). […] The nonapeptide works both when applied to cells in vitro/ex vivo and when infused into mice in vivo.
# pancreatic beta cell = assay: Preliminary studies of nonapeptide on pancreatic beta cell survival and growth; assay type: cell-based; settings: preliminary data
# Description: as §1
# Wnt signaling [1] = assay: Wnt signaling luciferase reporter assay (TOPflash/FOPflash) in INS-1 cells; assay type: cell-based
# Description: Wnt signaling is indicated by the value of TOPflash luciferase activity divided by FOPflash activity. A. Time course of the TOPflash:FOPflash ratio of INS-1 cell treated with 1 nM SDF-1. B. Ratio of TOPflash to FOPflash activity in INS-1 cells treated with increasing doses of SDF-1. C. […] All values are relative to the value of the untreated INS-1 cells. Data are normalized for transfection efficiency by co-transfected beta-galactosidase and represent means±S.D. of three experiments.
# All values are relative to the first (leftmost) bar. Statistical significance is depicted as * (p<0.05) when compared with control values (leftmost bar). Data are normalized for transfection efficiency by co-transfected beta-galactosidase and represent means±S.D. of three experiments.
# Wnt Signaling Luciferase Reporter Assay (TOPflash) INS-1 cells were plated into 24-well dishes 24 hr before transfection with TOPflash or the mutant, control reporter, FOPflash (1 microg/well) using LipofectAMINE2000 (Invitrogen). Various concentrations of SDF-1 or AMD3100 were then added to the culture medium 24 h following transfection for the indicated period of time. In studies in which inhibitors were used, LY294002 (50 microM), PD98059 (10 microM) or SH-5 (10 nM) were added concomitantly with SDF-1. In studies in which wild-type (wt), dominant-negative (dn) or contitutively-active (ca) forms of kinase were used, dnTCF7L2, dnGSK3beta, caGSK3beta, dnAkt, or caAkt (0.5 microg/well) was cotransfected with TOPflash. Luciferase activity in transfected cells was determined with a luciferase assay kit (Promega).
# We examined SDF-1 induction of Wnt signaling using a Wnt signaling reporter assay (TOPflash/FOPflash). The TOPflash and FOPflash constructs contain the luciferase reporter either under the control of consensus TCF7L2-binding sites or mutated TCF7L2-binding sites, respectively. Luciferase activity was measured during 4 hr after addition of 1 nM SDF-1 (FIG. 3A).
# insulin producing cells = settings: in vitro, equimolar quantities; cited from earlier work
# [2] = system: INS-1 cells and mouse islets; assay: GLP-1 pro-proliferative and cytoprotective actions; assay type: cell-based; settings: tentative
# INS-1 or MIN6 cells = assay: Thapsigargin-induced apoptosis, caspase-3 activity assay; assay type: cell-based; settings: thapsigargin 1 microM, 16 h
# Description: FIG. 6. Inhibition of apoptosis by SDF-1 in INS-1 and MIN-6 cells is reversed by knock-down of betacatenin. A. Western blot analysis of extracts from MIN6 cells that were mock treated, thapsigargin-treated (1 μM) and/or siRNA transfected (0.25 mg/ml), by using anti-serum against cleaved caspase-3 (upper panel), anti-serum against cleaved PARP (middle panel) and actin antibody (lower panel) as a loading control. B. Caspase-3 activity (fluorescence/mg proteinx105) of INS-1 or MIN6 cells mock treated, thapsigargin-treated (1 μM) and/or siRNA transfected (0.25 mg/ml). Results are presented as mean±SD for n=3 independent experiments, All values are relative to the first (leftmost) bar. […] Quantification of apoptotic cells is expressed as percent apoptotic cells relative to the total cells counted (lower left panel). […]
# Thapsigargin-induced apoptosis in INS-1 or MIN6 cells For western immuoblot assay (Cell Signaling), MIN6 cells were seeded into 6 well plates then treated with 1 microM thapsigargin or DMSO control for 16 h and apoptotic activity was measured by Western immunoblotting using antisera specific for cleaved (active) caspase-3 (Cell signaling #9661) and cleaved (active) PARP (Cell signaling #9548). For caspase-3 assay, INS-1 cells or MIN-6 cells in 24-well plates were treated with 1 microM thapsigargin or DMSO for 16 hand caspase-3 activity was determined (Molecular Probes). […]
# INS-1 or Min6 beta cells = assay: SDF-1 mRNA by QPCR in injured beta cells; assay type: cell-based; settings: 3 to 20 hrs
# Description: FIG. 15. […] INS-1 or Min6 beta cells were treated for 3 to 20 hrs with the stress/apoptosis inducers, thapsigargin, streptozotocin (STZ), or mixtures of cytokines (listed at the bottom of the right lower panel). SDF-1 mRNA was measured in cell extracts by QPCR. Cytokines also stimulate the secretion of SDF-1 Protein (see new FIG. 21).
# Wnt signaling [3] = assay: Wnt signaling reporter (beta-galactosidase) in isolated islets of TopGal mouse; assay type: cell-based; settings: added with SDF-1, isolated TopGal mouse islets
# Description: A. Isolated islets express reporter-driven beta-galactosidase. The dark regions mark the expression of beta-galactosidase, an indicator of the activation of the Wnt signaling reporter LacZ transgene. […] B. Polymerase chain reaction showing changes in beta-galactosidase mRNA levels in islets shown in panel A.
# Isolated mouse pancreatic islets Mouse islets were isolated (Lacy PE (1994) Pancreatic islet cell transplant. Mt Sinai J. Med. 61:23-31.) from the pancreata of TopGal reporter mice transgenic for the LEF-LacZ Wnt signaling reporter (DasGupta R, Fuchs E (1999) Development. 1999 126:4557-4568.). Freshly isolated islets were treated for 4 hrs with SDF-1 with and without the addition of the Galphai/o inhibitor pertussis toxin (PTX) or the CXCR4 antagonist AMD3100. Betagalactosidase activity was determined by incubation of the islets with X-gal for 6 hrs.
# Polymerase chain reaction analyses of betagalactosidase mRNA levels in isolated mouse islets Islets from TopGal mice were harvested after treatments with SDF-1, SDF-1+AMD3100, and SDF-1+pertussis toxin. RNA was extracted and beta galactosidase mRNA levels were measured by PCR using a SYBR Green QPCR kit (Stratagene) with the primers as described in Liu Z, Habener J F 2008 Glucagon-like Peptide-1 Activation of TCF7L2-dependent Wnt Signaling Enhances Pancreatic Beta Cell Proliferation. […]
# INS-1 cells [4] = assay: ATP-lite cell viability assay, serum deprivation, SDF-1 with AMD3100; assay type: cell-based; settings: serum-free, SDF-1 2 nM
# Description: ATP lite cell viability assay: INS-1 cells were plated in 96 well plates. SDF-1 (2 nM) and AMD3100 were added at day 0, 2, 4 and cell viability was measured at day 6 using relative light units (RLU) as compared to control. N=6.
# INS-1 cells were plated in 96 well plates in control medium (no serum) or a medium containing 2% serum. SDF-1 (2 nM) and SDF-1 (2 nM) along with various concentrations of AMD3100 (2 uM, 0.4 uM, 80 nM, 16 nM) were added to different cell groups incubated in serum-free medium at days 0, 2, 4, and cell viability was measured at day 6 using relative light units (RLU) as compared to control.
# INS-1 cells [5] = settings: serum-free, SDF-1 2 nM, AMD3100 16 nM-2 uM, day 6
# Description: INS-1 cells were plated in 96 well plates in control medium (no serum) or a medium containing 2% serum.
compound,measurement,setting,value
FIAWLVKGR-amide (FIAWLVKGR-NH2) [GLP-1(28-36) amide nonapeptide],islet size in mice,mice,enhances islet size
same,pancreatic beta cell survival and growth,pancreatic beta cell,profound effects
COc1cccc(-c2cc(=O)c3ccccc3o2)c1N [PD98059],effect on SDF-1-stimulated TOPflash activity,"Wnt signaling [1]; LY294002 50 microM, PD98059 10 microM, SH-5 10 nM",does not affect
same,effect on basal level TOPflash activity,Wnt signaling [1]; no SDF-1,do not affect
"Exendin-4: GLP-1 agonist peptide from Gila Monster salivary glands, SEQ ID NO: 3",potency at causing insulin release,insulin producing cells,more potent than GLP-1
"glucoincretin hormone, SEQ ID NO: 2, HAEGTFTSDVSSYLEGQAAKEFIAWLVKGRG [GLP-1]",Kd,[2],1 nM
same,cytoprotective actions (concentration),[2],10 nM
"C/C=C(/C)C(=O)O[C@H]1C(C)=C2[C@H]([C@@H]1OC(=O)CCCCCCC)[C@@](C)(OC(C)=O)C[C@H](OC(=O)CCC)[C@@]1(O)[C@H]2OC(=O)[C@@]1(C)O [Thapsigargin, reference compound]",induction of caspase-3 activity,INS-1 or MIN6 cells,threefold
same,SDF-1 expression (mRNA) in injured beta cells,INS-1 or Min6 beta cells,induces SDF-1 expression
c1cc(CN2CCCNCCNCCCNCC2)ccc1CN1CCCNCCNCCCNCC1 [AMD3100],effect on SDF-1-induced Wnt signaling response in TopGal islets,Wnt signaling [3],inhibition
same,effect on SDF-1 activation of luciferase activity (TOPflash/FOPflash),Wnt signaling [1]; coincubation with increasing amounts,antagonized
same,effect on SDF-1 mediated cell survival,INS-1 cells [4]; AMD3100 16 nM-2 uM,partially and dose-dependently blocked
same,effective concentration for blocking SDF-1 mediated cell survival,INS-1 cells [4]; day 6,around 1 uM
same,effect on SDF-1 mediated insulin production,INS-1 cells [5],partially and dose-dependently blocked
CN(N=O)C(=O)N[C@H]1C(O)O[C@H](CO)[C@@H](O)[C@@H]1O (mixture of isomers) [streptozotocin],SDF-1 expression (mRNA) in injured beta cells,INS-1 or Min6 beta cells,induces SDF-1 expression
